Experimental data taken from PubChem BioAssay (NCI).
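GI50 is the concentration that inhibits growth by half. TGI: total growth inhibition.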

How the values were obtained:
Test in all cases: growth of human tumour cells (NCI), 384-well format
OVCAR-3 ovarian = test system: OVCAR-3 ovarian
SR leukemia = test system: SR leukemia
RPMI-8226 leukemia = test system: RPMI-8226 leukemia
HS 578T breast = test system: HS 578T breast
NCI-H23 lung = test system: NCI-H23 lung
NCI-H460 NSCLC = test system: NCI-H460 NSCLC
NCI/ADR-RES ovarian = test system: NCI/ADR-RES ovarian
HT29 colon = test system: HT29 colon
HOP-62 NSCLC = test system: HOP-62 NSCLC
CCRF-CEM leukemia = test system: CCRF-CEM leukemia
HOP-92 NSCLC = test system: HOP-92 NSCLC
MALME-3M melanoma = test system: MALME-3M melanoma
KM12 colon = test system: KM12 colon
HCC-2998 colon = test system: HCC-2998 colon
COLO 205 colon = test system: COLO 205 colon
OVCAR-8 ovarian = test system: OVCAR-8 ovarian
MCF7 breast = test system: MCF7 breast
OVCAR-4 ovarian = test system: OVCAR-4 ovarian
PC-3 prostate = test system: PC-3 prostate
SK-MEL-5 melanoma = test system: SK-MEL-5 melanoma
UO-31 renal = test system: UO-31 renal
U251 glioblastoma = test system: U251 glioblastoma
CAKI-1 renal = test system: CAKI-1 renal
A498 renal = test system: A498 renal
DU-145 prostate = test system: DU-145 prostate
SF-268 CNS = test system: SF-268 CNS
EKVX NSCLC = test system: EKVX NSCLC
NCI-H226 lung = test system: NCI-H226 lung
SW-620 colon = test system: SW-620 colon
NCI-H522 lung = test system: NCI-H522 lung

CCS(=O)(=O)N1CCN(c2ccc(Nc3ncc(C(N)=O)c(NC4CC4)n3)cc2)CC1
GI50 (OVCAR-3 ovarian): 2.61 µM
TGI (OVCAR-3 ovarian): 7.63 µM
GI50 (SR leukemia): 0.368 µM
TGI (SR leukemia): 1.29 µM
GI50 (RPMI-8226 leukemia): 0.155 µM
TGI (RPMI-8226 leukemia): 0.401 µM
GI50 (HS 578T breast): 2.01 µM
TGI (HS 578T breast): 4.45 µM
GI50 (NCI-H23 lung): 1.29 µM
TGI (NCI-H23 lung): 4.25 µM
GI50 (NCI-H460 NSCLC): 3.17 µM
TGI (NCI-H460 NSCLC): 51.7 µM
GI50 (NCI/ADR-RES ovarian): 7.08 µM
TGI (NCI/ADR-RES ovarian): 28.6 µM
GI50 (HT29 colon): 4.09 µM
TGI (HT29 colon): 56.4 µM
GI50 (HOP-62 NSCLC): 1.89 µM
TGI (HOP-62 NSCLC): 5.01 µM
GI50 (CCRF-CEM leukemia): 0.366 µM
TGI (CCRF-CEM leukemia): 1.27 µM
GI50 (HOP-92 NSCLC): 3.72 µM
TGI (HOP-92 NSCLC): 14.9 µM
GI50 (MALME-3M melanoma): 0.539 µM
TGI (MALME-3M melanoma): 4.14 µM
GI50 (KM12 colon): 0.44 µM
TGI (KM12 colon): 12 µM
GI50 (HCC-2998 colon): 2.5 µM
TGI (HCC-2998 colon): 5.15 µM
GI50 (COLO 205 colon): 0.485 µM
TGI (COLO 205 colon): 2.18 µM
GI50 (OVCAR-8 ovarian): 0.371 µM
TGI (OVCAR-8 ovarian): 1.4 µM
GI50 (MCF7 breast): 1.41 µM
TGI (MCF7 breast): 22.3 µM
GI50 (OVCAR-4 ovarian): 2.06 µM
TGI (OVCAR-4 ovarian): 5.72 µM
GI50 (PC-3 prostate): 10.4 µM
TGI (PC-3 prostate): > 100 µM
GI50 (SK-MEL-5 melanoma): 1.39 µM
TGI (SK-MEL-5 melanoma): 4.65 µM
GI50 (UO-31 renal): 2.92 µM
TGI (UO-31 renal): > 100 µM
GI50 (U251 glioblastoma): 6.79 µM
TGI (U251 glioblastoma): > 100 µM
GI50 (CAKI-1 renal): 6.05 µM
TGI (CAKI-1 renal): > 100 µM
GI50 (A498 renal): 1.68 µM
TGI (A498 renal): 5.19 µM
GI50 (DU-145 prostate): 2.82 µM
TGI (DU-145 prostate): 18.8 µM
GI50 (SF-268 CNS): 1.9 µM
TGI (SF-268 CNS): 21.5 µM
GI50 (EKVX NSCLC): 1.92 µM
TGI (EKVX NSCLC): 10.2 µM
GI50 (NCI-H226 lung): 0.633 µM
TGI (NCI-H226 lung): 10.6 µM
GI50 (SW-620 colon): 44.9 µM
TGI (SW-620 colon): > 100 µM
GI50 (NCI-H522 lung): 0.674 µM
